Experiment [1] deals with T1, N-myristoyltransferase 1 (NMT1) (Homo sapiens, UniProt P30419).
T1 sequence (P30419 1-496): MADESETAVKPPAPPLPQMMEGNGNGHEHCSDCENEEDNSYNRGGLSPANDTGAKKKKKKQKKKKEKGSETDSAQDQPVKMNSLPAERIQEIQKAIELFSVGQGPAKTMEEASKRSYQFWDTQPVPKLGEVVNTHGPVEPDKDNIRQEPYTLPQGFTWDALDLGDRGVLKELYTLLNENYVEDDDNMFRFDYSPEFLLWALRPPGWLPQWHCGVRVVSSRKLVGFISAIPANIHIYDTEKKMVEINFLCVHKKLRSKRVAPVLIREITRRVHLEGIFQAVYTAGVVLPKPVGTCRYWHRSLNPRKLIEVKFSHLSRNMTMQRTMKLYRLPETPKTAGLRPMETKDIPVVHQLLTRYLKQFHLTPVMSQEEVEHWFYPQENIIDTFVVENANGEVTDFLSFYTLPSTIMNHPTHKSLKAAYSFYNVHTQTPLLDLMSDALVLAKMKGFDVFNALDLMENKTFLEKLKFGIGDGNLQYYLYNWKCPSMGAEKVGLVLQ
The experiment in a line: steady-state inhibition kinetics of myristoylation of ARF6 peptide (HPLC), recombinant NMT1. The format is biochemical.

The target in experiment [2] is T1, N-myristoyltransferase 1 (NMT1). The experiment in a line: steady-state kinetics with ARF6 peptide (HPLC, MS); Kia from ordered Bi-Bi global fit. It is filed as biochemical.
Experiment [3] has the same target. In words: steady-state inhibition kinetics of acetylation of ARF6 peptide (HPLC), recombinant NMT1. The format is biochemical.
Experiment [4] deals with T2, human N-myristoyltransferase 1 (NMT1) (human) (UniProt P30419).
T2 sequence: T1 sequence (P30419 1-496)

Where two headings read alike, the source gives them in different places.

Broadly, the Ki is the equilibrium dissociation constant of an inhibitor or competing ligand from its target.

As to `CCCCCCCCCCCCCC(=O)CSCCNC(=O)CCNC(=O)[C@H](O)C(C)(C)COP(=O)(O)OP(=O)(O)OC[C@H]1O[C@@H](n2cnc3c(N)ncnc32)[C@H](O)[C@@H]1OP(=O)(O)O` [S-(2-oxo)pentadecyl-CoA], the Ki in experiment [1] came to 0.0147 ± 0.0022 µM.

As to `CC(=O)SCCNC(=O)CCNC(=O)[C@H](O)C(C)(C)COP(=O)(O)OP(=O)(O)OC[C@H]1O[C@@H](n2cnc3c(N)ncnc32)[C@H](O)[C@@H]1OP(=O)(O)O` [Ac-CoA, acetyl-CoA], the Kd in experiment [2] (read-out: Kia) was found to be 2.4 ± 0.5 µM. The molecule `CCCCCCCCCCCCCC(=O)SCCNC(=O)CCNC(=O)[C@H](O)C(C)(C)COP(=O)(O)OP(=O)(O)OC[C@H]1O[C@@H](n2cnc3c(N)ncnc32)[C@H](O)[C@@H]1OP(=O)(O)O` [Myr-CoA, myristoyl-CoA] showed a Kd in experiment [2] of 0.2 ± 0.1 µM.

Take `CC(=O)CSCCNC(=O)CCNC(=O)[C@H](O)C(C)(C)COP(=O)(O)OP(=O)(O)OC[C@H]1O[C@@H](n2cnc3c(N)ncnc32)[C@H](O)[C@@H]1OP(=O)(O)O` [S-acetonyl-CoA]: in experiment [3], the Ki came out at 10.1 ± 2.2 µM. Regarding GKVLSKIFWW [ARF6 N-terminal peptide (…)], in experiment [4], the Kpep (Michaelis constant Km for ARF6 peptide) of NMT1-catalysed acetylation, Ac-CoA as the first substrate; 50 mM TriCl pH 8.0, 37 °C amounted to 40 μM and the Kpep (Michaelis constant Km for ARF6 peptide) of NMT1-catalysed myristoylation, Myr-CoA as the first substrate; 50 mM TriCl pH 8.0, 37 °C was found to be 5 μM.

The values above are taken from paper PMC8689648, “Binding Affinity Determines Substrate Specificity and Enables Discovery of Substrates for N-Myristoyltransferases” (ACS Catalysis, 2021).
